For the assay, the target named is human orexin-2 receptor (Homo sapiens (Human), UniProt O43614). In words: Human orexin 2 receptor radioligand binding ([3H]-EMPA competition). The following applies: HEK293 cells stably expressing human orexin-2 receptor; [3H]-EMPA 5 nM final; apparent Ki=IC50/(1+C/Kd), Kd=2 nM; read-out: OR 2 Ki.
human orexin-2 receptor, sequence (O43614 whole entry): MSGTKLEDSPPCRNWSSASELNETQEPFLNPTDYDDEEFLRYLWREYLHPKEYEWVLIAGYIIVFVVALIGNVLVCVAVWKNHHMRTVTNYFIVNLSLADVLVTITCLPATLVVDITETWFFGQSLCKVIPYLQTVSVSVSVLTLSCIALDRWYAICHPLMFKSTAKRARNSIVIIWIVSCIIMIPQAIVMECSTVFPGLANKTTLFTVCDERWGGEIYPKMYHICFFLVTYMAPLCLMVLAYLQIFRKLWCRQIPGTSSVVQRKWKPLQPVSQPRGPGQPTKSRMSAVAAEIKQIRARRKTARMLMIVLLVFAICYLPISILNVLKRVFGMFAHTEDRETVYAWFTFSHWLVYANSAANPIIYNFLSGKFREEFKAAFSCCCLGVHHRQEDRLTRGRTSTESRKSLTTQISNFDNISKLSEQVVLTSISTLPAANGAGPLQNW
For `O=C(c1ccccc1-n1nccn1)N1CC2CN(c3cnc4ccccc4n3)CC2C1` (centres unmarked) [Example 149, 2-[5-{[2-(2H-1,2,3-Triazol-2-yl)phenyl]carbonyl}hexahydropyrrolo[3,4-c]pyrrol-2(1H)-yl]quinoxaline], the Ki is 173 nM. The value for `COc1ccnc(N2CC3CN(C(=O)c4cc(F)ccc4-c4ncccn4)CC3C2)n1` (centres unmarked) [Example 150, 2-[(5-Fluoro-2-pyrimidin-2-ylphenyl)carbonyl]-5-(4-methoxypyrimidin-2-yl)octahydropyrrolo[3,4-c]pyrrole] was 92 nM; that for `O=C(c1ccccc1-n1nccn1)N1CC2CN(c3nccc(-c4ccco4)n3)CC2C1` (centres unmarked) [Example 151, 2-(4-Furan-2-ylpyrimidin-2-yl)-5-{[2-(2H-1,2,3-triazol-2-yl)phenyl]carbonyl}octahydropyrrolo[3,4-c]pyrrole] was 184 nM.

On to `O=C(c1ccccc1-n1nccn1)N1CC2CN(c3ccc(F)cn3)CC2C1` (centres unmarked) [Example 152, 2-(5-Fluoropyridin-2-yl)-5-{[2-(2H-1,2,3-triazol-2-yl)phenyl]carbonyl}octahydro pyrrolo[3,4-c]pyrrole], for which the Ki amounted to 125 nM. The value for `O=C(c1ccccc1-n1nccn1)N1CC2CN(c3nccc(C(F)(F)F)n3)CC2C1` (centres unmarked) [Example 153, 2-{[2-(2H-1,2,3-Triazol-2-yl)phenyl]carbonyl}-5-[4-(trifluoromethyl)pyrimidin-2-yl]octahydropyrrolo[3,4-c]pyrrole] was 75 nM. As for `COc1ccnc(N2CC3CN(C(=O)c4ccccc4-c4ncn[nH]4)CC3C2)n1` (centres unmarked) [Example 154, 2-(4-Methoxypyrimidin-2-yl)-5-{[2-(1H-1,2,4-triazol-5-yl)phenyl]carbonyl}octahydropyrrolo[3,4-c]pyrrole], the figure is 241 nM; as for `Cc1cnc(C)c(N2CC3CN(C(=O)c4ccccc4-n4nccn4)CC3C2)n1` (centres unmarked) [Example 155, 2-(3,6-Dimethylpyrazin-2-yl)-5-{[2-(2H-1,2,3-triazol-2-yl)phenyl]carbonyl}octahydropyrrolo[3,4-c]pyrrole], 33 nM; as for `COc1ccnc(N2CC3CN(C(=O)c4ccccc4-n4nccn4)CC3C2)n1` (centres unmarked) [Example 156, 2-(4-Methoxypyrimidin-2-yl)-5-{[2-(2H-1,2,3-triazol-2-yl)phenyl]carbonyl}octahydropyrrolo[3,4-c]pyrrole], 39 nM. As for `Cc1cncc(N2CC3CN(C(=O)c4ccc(F)cc4-n4nccn4)CC3C2)n1` (centres unmarked) [Example 158, 2-{[4-Fluoro-2-(2H-1,2,3-triazol-2-yl)phenyl]carbonyl}-5-(6-methylpyrazin-2-yl)octahydropyrrolo[3,4-c]pyrrole], the figure is 55 nM; as for `COc1ccnc(N2CC3CN(C(=O)c4ccc(F)cc4-n4nccn4)CC3C2)n1` (centres unmarked) [Example 159, 2-{[4-Fluoro-2-(2H-1,2,3-triazol-2-yl)phenyl]carbonyl}-5-(4-methoxypyrimidin-2-yl)octahydropyrrolo[3,4-c]pyrrole], 45 nM.

Take `COc1cc(OC)nc(N2CC3CN(C(=O)c4ccc(F)cc4-n4nccn4)CC3C2)n1` (centres unmarked) [Example 160, 2-(4,6-Dimethoxypyrimidin-2-yl)-5-{[4-fluoro-2-(2H-1,2,3-triazol-2-yl)phenyl]carbonyl}octahydropyrrolo[3,4-c]pyrrole]: the Ki came to 58 nM. As to `COc1ccc(C(=O)N2CC3CN(c4nc5ccc(Cl)cc5s4)CC3C2)c(OC)c1` (centres unmarked) [Example 163, 6-Chloro-2-{5-[(2,4-dimethoxyphenyl)carbonyl]hexahydropyrrolo[3,4-c]pyrrol-2(1H)-yl}-1,3-benzothiazole], the Ki was found to be 380 nM. As for `O=C(c1ccccc1-c1ccccc1)N1CC2CN(c3nccc(-c4ccccc4)n3)CC2C1` (centres unmarked) [Example 164, 2-(Biphenyl-2-ylcarbonyl)-5-(4-phenylpyrimidin-2-yl)octahydropyrrolo[3,4-c]pyrrole], the Ki turned out to be 289 nM. Take `COc1cccc(OC)c1C(=O)N1CC2CN(c3cnc4ccccc4n3)CC2C1` (centres unmarked) [Example 165, 2-{5-[(2,6-Dimethoxyphenyl)carbonyl]hexahydropyrrolo[3,4-c]pyrrol-2(1H)-yl}quinoxaline]: the Ki turned out to be 852 nM. As for `COc1cccc(OC)c1C(=O)N1CC2CN(c3nccc(-c4ccccc4)n3)CC2C1` (centres unmarked) [Example 166, 2-[(2,6-Dimethoxyphenyl)carbonyl]-5-(4-phenylpyrimidin-2-yl)octahydropyrrolo[3,4-c]pyrrole], the figure is 465 nM. As for `COc1ccc(C(=O)N2CC3CN(c4nccc(-c5ccccc5)n4)CC3C2)c(OC)c1` (centres unmarked) [Example 167, 2-[(2,4-Dimethoxyphenyl)carbonyl]-5-(4-phenylpyrimidin-2-yl)octahydropyrrolo[3,4-c]pyrrole], the figure is 411 nM. As for `O=C(c1ccccc1-c1ccccc1)N1CC2CN(c3cnc4ccccc4n3)CC2C1` (centres unmarked) [Example 168, 2-[5-(Biphenyl-2-ylcarbonyl)hexahydropyrrolo[3,4-c]pyrrol-2(1H)-yl]quinoxaline], the Ki was found to be 66 nM. As for `O=C(c1ccccc1-c1ccccc1)N1CC2CN(c3nc4ccccc4s3)CC2C1` (centres unmarked) [Example 169, 2-[5-(Biphenyl-2-ylcarbonyl)hexahydropyrrolo[3,4-c]pyrrol-2(1H)-yl]-1,3-benzothiazole], the figure is 595 nM.

In the case of `COc1ccc(C(=O)N2CC3CN(c4cc(C)c5ccccc5n4)CC3C2)c(OC)c1` (centres unmarked) [Example 170, 2-{5-[(2,4-Dimethoxyphenyl)carbonyl]hexahydropyrrolo[3,4-c]pyrrol-2(1H)-yl}-4-methylquinoline], the Ki amounted to 945 nM.

For the compound `COc1ccc(C(=O)N2CC3CN(c4nc5ccc(OC)cc5s4)CC3C2)c(OC)c1` (centres unmarked) [Example 171, 2-{5-[(2,4-Dimethoxyphenyl)carbonyl]hexahydropyrrolo[3,4-c]pyrrol-2(1H)-yl}-6-methoxy-1,3-benzothiazole], the Ki is 780 nM. As for `COc1ccc(C(=O)N2CC3CN(c4nc5ccc(C)cc5s4)CC3C2)c(OC)c1` (centres unmarked) [Example 172, 2-{5-[(2,4-Dimethoxyphenyl)carbonyl]hexahydropyrrolo[3,4-c]pyrrol-2(1H)-yl}-6-methyl-1,3-benzothiazole], the figure is 450 nM; as for `Cc1cccc(N2CC3CN(C(=O)c4ccccc4-c4ccccc4)CC3C2)n1` (centres unmarked) [Example 173, 2-(Biphenyl-2-ylcarbonyl)-5-(6-methylpyridin-2-yl)octahydropyrrolo[3,4-c]pyrrole], 950 nM; as for `Cc1ccnc(N2CC3CN(C(=O)c4ccccc4-c4ccccc4)CC3C2)n1` (centres unmarked) [Example 174, 2-(Biphenyl-2-ylcarbonyl)-5-(4-methylpyrimidin-2-yl)octahydropyrrolo[3,4-c]pyrrole], 729 nM. The value for `O=C(c1ccccc1-c1ccccc1)N1CC2CN(c3ccc4ccccc4n3)CC2C1` (centres unmarked) [Example 175, 2-[5-(Biphenyl-2-ylcarbonyl)hexahydropyrrolo[3,4-c]pyrrol-2(1H)-yl]quinoline] was 669 nM; that for `O=C(c1ccccc1-c1ccccc1)N1CC2CN(c3nc4ccc(F)cc4s3)CC2C1` (centres unmarked) [Example 176, 2-[5-(Biphenyl-2-ylcarbonyl)hexahydropyrrolo[3,4-c]pyrrol-2(1H)-yl]-6-fluoro-1,3-benzothiazole] was 236 nM; that for `COc1ccnc(N2CC3CN(C(=O)c4ccccc4-c4ccccc4)CC3C2)n1` (centres unmarked) [Example 177, 2-(Biphenyl-2-ylcarbonyl)-5-(4-methoxypyrimidin-2-yl)octahydropyrrolo[3,4-c]pyrrole] was 339 nM.

The values above are taken from US8653263B2 (Janssen Pharmaceutica, priority 2009, dated 2014).
